Experimental findings from US20260258064A1 (SIRONAX LTD., priority 2023, published 2026) are described below.

Some results are limits rather than exact numbers.

In the assay the target is T1, SARM1 (50-724) (Homo sapiens, UniProt Q6SZW1).
T1 construct: Purified SARM1 (50-724) with a final concentration of 2 nM was pre-incubated with a test compound
T1 sequence (Q6SZW1 50-724): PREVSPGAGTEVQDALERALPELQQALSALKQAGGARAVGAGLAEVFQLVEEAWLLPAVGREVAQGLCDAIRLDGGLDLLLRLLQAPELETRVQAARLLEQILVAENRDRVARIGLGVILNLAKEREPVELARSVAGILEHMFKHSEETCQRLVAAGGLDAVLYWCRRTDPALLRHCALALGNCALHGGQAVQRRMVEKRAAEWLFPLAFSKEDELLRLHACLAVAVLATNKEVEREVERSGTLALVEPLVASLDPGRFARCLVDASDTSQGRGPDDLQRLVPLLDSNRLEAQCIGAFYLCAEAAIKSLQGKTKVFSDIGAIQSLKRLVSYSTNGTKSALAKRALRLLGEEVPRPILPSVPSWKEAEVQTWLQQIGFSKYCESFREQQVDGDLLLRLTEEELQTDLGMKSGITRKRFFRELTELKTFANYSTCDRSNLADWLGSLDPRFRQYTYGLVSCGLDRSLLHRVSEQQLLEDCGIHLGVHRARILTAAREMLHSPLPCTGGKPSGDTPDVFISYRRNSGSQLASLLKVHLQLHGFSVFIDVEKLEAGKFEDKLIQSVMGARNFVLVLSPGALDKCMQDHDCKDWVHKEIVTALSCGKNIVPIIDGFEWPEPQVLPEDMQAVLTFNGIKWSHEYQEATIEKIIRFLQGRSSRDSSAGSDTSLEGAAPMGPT
The experiment in a line: SARM1 (50-724) enzymatic assay (LC-MS/MS). Format: biochemical. The following applies: Purified SARM1 (50-724) 2 nM, NMN as activator, NAD+ as substrate, 1 h at room temperature, read-out: IC50 (SARM1 inhibitory activity). In outline:
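Human SARM1 (50-724), 2 nM, pre-incubated 15 min at room temperature with compound in Dulbecco's PBS. Reaction started with 200 µM NMN (activator) plus […] NAD^+ substrate, run 1 h at room temperature, quenched with 70% acetonitrile. Turnover quantified by LC-MS/MS; IC50 reported.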
Usually IC50 stands for the midpoint of a concentration-inhibition curve. As to `FC(F)(F)Oc1cnc(C2CC2)cc1-n1cnnc1-c1nc2cc(C(F)(F)F)ccc2[nH]1` [Compound 221, 2-(4-(2-cyclopropyl-5-(trifluoromethoxy)pyridin-4-yl)-4H-1,2,4-triazol-3-yl)-5-(trifluoromethyl)-1H-benzo[d]imidazole], the IC50 was at most 100 nM.

Take `Cn1cc(OC(F)(F)F)c(-n2cnnc2-c2nc3cc(C(F)(F)F)cc(F)c3[nH]2)cc1=O` [Compound 222, 4-(3-(7-fluoro-5-(trifluoromethyl)-1H-benzo[d]imidazol-2-yl)-4H-1,2,4-triazol-4-yl)-1-methyl-5-(trifluoromethoxy)pyridin-2(1H)-one]: the IC50 was at most 100 nM. Take `FC(F)(F)Oc1cnccc1-n1cnnc1-c1nc2cc(C34CC(C3)C4)ccc2[nH]1` [Compound 223, 5-(bicyclo[1.1.1]pentan-1-yl)-2-(4-(3-(trifluoromethoxy)pyridin-4-yl)-4H-1,2,4-triazol-3-yl)-1H-benzo[d]imidazole]: the IC50 is at most 100 nM. Then `CC1(c2ccc3[nH]c(-c4nncn4-c4ccncc4OC(F)(F)F)nc3c2)CC1` [Compound 224, 5-(1-methylcyclopropyl)-2-(4-(3-(trifluoromethoxy)pyridin-4-yl)-4H-1,2,4-triazol-3-yl)-1H-benzo[d]imidazole], with at most 100 nM; and `FC(F)(F)c1ccc2[nH]c(-c3nncn3-c3cnccc3C(F)(F)F)nc2c1` [Compound 225, 5-(Trifluoromethyl)-2-(4-(4-(trifluoromethyl)pyridin-3-yl)-4H-1,2,4-triazol-3-yl)-1H-benzo[d]imidazole], with at most 100 nM. On to `C#Cc1cc(-n2cnnc2-c2nc3cc(C(F)(F)F)ccc3[nH]2)c(OC(F)(F)F)cn1` [Compound 226, 2-(4-(2-ethynyl-5-(trifluoromethoxy)pyridin-4-yl)-4H-1,2,4-triazol-3-yl)-5-(trifluoromethyl)-1H-benzo[d]imidazole], for which the IC50 was at most 100 nM. Turning to `FC(F)(F)Oc1cnccc1-n1cnnc1-c1nc2cc(C(F)(F)F)cc(Cl)c2[nH]1` [Compound 227, 7-chloro-2-(4-(3-(trifluoromethoxy)pyridin-4-yl)-4H-1,2,4-triazol-3-yl)-5-(trifluoromethyl)-1H-benzo[d]imidazole], the IC50 is at most 100 nM.

Consider `FC(F)(F)c1ccc2[nH]c(-c3nncn3-c3ccncc3OC3CC3)nc2c1` [Compound 228], for which the IC50 was over 1000 nM. `N#CC1(c2ccc3[nH]c(-c4nncn4-c4cccc(F)c4Cl)nc3c2)CC12CC2` (centres unmarked) [Compound 229, 1-(2-(4-(2-chloro-3-fluorophenyl)-4H-1,2,4-triazol-3-yl)-1H-benzo[d]imidazol-5-yl)spiro[2.2]pentane-1-carbonitrile]: the IC50 is at most 100 nM. `OCCOc1ccc(OC(F)(F)F)c(-n2cnnc2-c2nc3cc(C(F)(F)F)ccc3[nH]2)c1` [Compound 230, 2-(4-(trifluoromethoxy)-3-(3-(5-(trifluoromethyl)-1H-benzo[d]imidazol-2-yl)-4H-1,2,4-triazol-4-yl)phenoxy)ethan-1-ol]: the IC50 was at most 100 nM. For `CCc1ccncc1-n1cnnc1-c1nc2cc(C(F)(F)F)ccc2[nH]1` [Compound 231, 2-(4-(4-ethylpyridin-3-yl)-4H-1,2,4-triazol-3-yl)-5-(trifluoromethyl)-1H-benzo[d]imidazole], the IC50 was at most 100 nM.

In the case of `FC(F)(F)Oc1cn2ccnc2cc1-n1cnnc1-c1nc2cc(C(F)(F)F)ccc2[nH]1` [Compound 232, 2-(4-(6-(trifluoromethoxy)imidazo[1,2-a]pyridin-7-yl)-4H-1,2,4-triazol-3-yl)-5-(trifluoromethyl)-1H-benzo[d]imidazole], the IC50 was at most 100 nM. Take `Fc1cc(C(F)(F)F)cc2nc(-c3nncn3-c3cnccc3C(F)(F)F)[nH]c12` [Compound 233, 7-Fluoro-5-(trifluoromethyl)-2-(4-(4-(trifluoromethyl)pyridin-3-yl)-4H-1,2,4-triazol-3-yl)-1H-benzo[d]imidazole]: the IC50 was at most 100 nM. With `FC(F)Oc1ncccc1-n1cnnc1-c1nc2cc(C(F)(F)F)ccc2[nH]1` [Compound 235, 2-(4-(2-(difluoromethoxy)pyridin-3-yl)-4H-1,2,4-triazol-3-yl)-5-(trifluoromethyl)-1H-benzo[d]imidazole], the IC50 is at most 100 nM. Then `FC(F)(F)c1ccc2[nH]c(-c3nncn3-c3cc4nccn4cc3C(F)(F)F)nc2c1` [Compound 236, 5-(trifluoromethyl)-2-(4-(6-(trifluoromethyl)imidazo[1,2-a]pyridin-7-yl)-4H-1,2,4-triazol-3-yl)-1H-benzo[d]imidazole], with at most 100 nM; and `FC(F)C1(c2ccc3[nH]c(-c4nncn4-c4ccncc4OC(F)(F)F)nc3c2)CC1` [Compound 237], with at most 100 nM; and `CCC(c1ccc2[nH]c(-c3nncn3-c3ccncc3OC(F)(F)F)nc2c1)C(F)F` (centres unmarked) [Compound 238, 5-(1,1-difluorobutan-2-yl)-2-(4-(3-(trifluoromethoxy)pyridin-4-yl)-4H-1,2,4-triazol-3-yl)-1H-benzo[d]imidazole], with at most 100 nM. On to `Oc1ccc(C(F)(F)F)c(-n2cnnc2-c2nc3cc(C(F)(F)F)ccc3[nH]2)c1` [Compound 240, 4-(trifluoromethyl)-3-(3-(5-(trifluoromethyl)-1H-benzo[d]imidazol-2-yl)-4H-1,2,4-triazol-4-yl)phenol], for which the IC50 is at most 100 nM. Consider `OCCOc1cc(-n2cnnc2-c2nc3cc(C(F)(F)F)ccc3[nH]2)c(OC(F)(F)F)cn1` [Compound 241, 2-((5-(trifluoromethoxy)-4-(3-(5-(trifluoromethyl)-1H-benzo[d]imidazol-2-yl)-4H-1,2,4-triazol-4-yl)pyridin-2-yl)oxy)ethan-1-ol], for which the IC50 was at most 100 nM. With `Cn1cc(OC(F)(F)F)c(-n2cnnc2-c2nc3cc(C(F)(F)F)ccc3[nH]2)cc1=S` [Compound 242, 1-methyl-5-(trifluoromethoxy)-4-(3-(5-(trifluoromethyl)-1H-benzo[d]imidazol-2-yl)-4H-1,2,4-triazol-4-yl)pyridine-2(1H)-thione] the figure was at most 100 nM. Then `CP(C)(=O)c1ccc(Cl)c(-n2cnnc2-c2nc3cc(C(F)(F)F)ccc3[nH]2)c1` [Compound 244, (4-chloro-3-(3-(5-(trifluoromethyl)-1H-benzo[d]imidazol-2-yl)-4H-1,2,4-triazol-4-yl)phenyl)dimethylphosphine oxide], with over 1000 nM; and `CN(C)c1ccncc1-n1cnnc1-c1nc2cc(C(F)(F)F)ccc2[nH]1` [Compound 245, N,N-dimethyl-3-(3-(5-(trifluoromethyl)-1H-benzo[d]imidazol-2-yl)-4H-1,2,4-triazol-4-yl)pyridin-4-amine], with at most 100 nM.

Regarding `Cc1nccc(C(F)(F)F)c1-n1cnnc1-c1nc2cc(C(F)(F)F)ccc2[nH]1` [Compound 246, 2-(4-(2-methyl-4-(trifluoromethyl)pyridin-3-yl)-4H-1,2,4-triazol-3-yl)-5-(trifluoromethyl)-1H-benzo[d]imidazole], the IC50 is at most 100 nM.

For `FC(F)(F)Cc1ccccc1-n1cnnc1-c1nc2cc(C(F)(F)F)ccc2[nH]1` [Compound 248, 2-(4-(2-(2,2,2-trifluoroethyl)phenyl)-4H-1,2,4-triazol-3-yl)-5-(trifluoromethyl)-1H-benzo[d]imidazole], the IC50 was over 1000 nM.

As for `NC(=O)COc1ccc(OC(F)(F)F)c(-n2cnnc2-c2nc3cc(C(F)(F)F)ccc3[nH]2)c1` [Compound 249, 2-(4-(trifluoromethoxy)-3-(3-(5-(trifluoromethyl)-1H-benzo[d]imidazol-2-yl)-4H-1,2,4-triazol-4-yl)phenoxy)acetamide], the IC50 is at most 100 nM.

Turning to `OCCOc1ccc(OC(F)(F)F)c(-n2cnnc2-c2nc3cc(C(F)(F)F)ccc3[nH]2)n1` [Compound 250], the IC50 was at most 100 nM.

For the compound `OCC(F)(F)COc1ccc(OC(F)(F)F)c(-n2cnnc2-c2nc3cc(C(F)(F)F)ccc3[nH]2)n1` [Compound 251, 2,2-difluoro-3-((5-(trifluoromethoxy)-6-(3-(5-(trifluoromethyl)-1H-benzo[d]imidazol-2-yl)-4H-1,2,4-triazol-4-yl)pyridin-2-yl)oxy)propan-1-ol], the IC50 is at most 100 nM. For the compound `FC(F)c1ccncc1-n1cnnc1-c1nc2cc(C(F)(F)F)ccc2[nH]1` [Compound 252, 2-(4-(4-(difluoromethyl)pyridin-3-yl)-4H-1,2,4-triazol-3-yl)-5-(trifluoromethyl)-1H-benzo[d]imidazole], the IC50 is at most 100 nM. Take `OCc1cc(-n2cnnc2-c2nc3cc(C(F)(F)F)ccc3[nH]2)c(OC(F)(F)F)cn1` [Compound 253, (5-(trifluoromethoxy)-4-(3-(5-(trifluoromethyl)-1H-benzo[d]imidazol-2-yl)-4H-1,2,4-triazol-4-yl)pyridin-2-yl)methanol]: the IC50 is at most 100 nM.
